*1 amine or outer side, *2 acyl side, *3 side chain or, on linkers, in order; H or OH if unused. Where a SMILES comes first, the peptide text is derived from it. Bridges are numbered along the chain shown (N, C = ends). [ ]: non-standard residue; d: D form. The star is where a group is joined. hPhe(3-Cl-4-CF3) = N[C@@H](CCc1ccc(C(F)(F)F)c(Cl)c1)C(=O)O; NPrPhe(4-CF3) = CCCN[C@@H](Cc1ccc(C(F)(F)F)cc1)C(=O)O; X49 = Cc1ccc(C[C@@H](C(=O)[*:2])N(CC2CC2)[*:1])cc1; NEtAsp = CCN([C@@H](CC(=O)[*:3])C(=O)[*:2])[*:1]; NMeGly(cPent) = CN[C@H](C(=O)O)C1CCCC1; Hyp = O=C(O)[C@@H]1C[C@@H](O)CN1; NMeD = CN[C@@H](CC(=O)O)C(=O)O; NMeL = CN[C@@H](CC(C)C)C(=O)O; NMeNva = CCC[C@H](NC)C(=O)O; Morpholide = C1CN(*)CCO1; NMeA = CN[C@@H](C)C(=O)O; Ac5c = NC1(C(=O)O)CCCC1; Aze = O=C(O)[C@@H]1CCN1; Ac4c = NC1(C(=O)O)CCC1; NEtG = CCNCC(=O)O; Sar = CNCC(=O)O
What was measured:
[1] = target: GDP-bound NRAS wild-type protein (Homo sapiens, UniProt P01111); assay: Binding to NRAS by surface plasmon resonance (SPR), KD and KD ratio to KRAS
GDP-bound NRAS wild-type protein, sequence (P01111 whole entry): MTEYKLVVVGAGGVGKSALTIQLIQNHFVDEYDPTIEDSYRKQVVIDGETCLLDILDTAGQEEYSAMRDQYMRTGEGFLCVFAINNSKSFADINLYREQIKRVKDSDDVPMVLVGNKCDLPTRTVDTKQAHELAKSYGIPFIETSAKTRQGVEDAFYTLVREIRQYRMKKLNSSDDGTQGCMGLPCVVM
Method in brief: (§1)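 Running buffer contained 10 µM GDP and 10 mM MgCl2 to keep RAS in the GDP state, with 4% DMSO at pH 7.4. Compounds were flowed at 100 µL/min in 75 s steps of rising concentration over captured biotin-Avi RAS at 30°C. Sensorgrams were fitted 1:1 for KD.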

HRAS wild-type protein = HRAS wild-type protein (Homo sapiens, UniProt P01112); assay: Binding to HRAS by surface plasmon resonance (SPR), KD and KD ratio to KRAS
HRAS wild-type protein, sequence (P01112 whole entry): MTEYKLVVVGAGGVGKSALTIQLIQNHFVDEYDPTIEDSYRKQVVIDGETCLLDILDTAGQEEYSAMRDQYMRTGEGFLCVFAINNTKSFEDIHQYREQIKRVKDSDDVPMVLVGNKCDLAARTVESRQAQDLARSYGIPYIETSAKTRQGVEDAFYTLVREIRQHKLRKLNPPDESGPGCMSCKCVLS
Method in brief: as §1

[2] = tested on: human lung cancer strain NCI-H441; format: cell-based
Method in brief: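 Step one: dispense the test compound in serial DMSO dilutions. Step three: add the reagent and measure […].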

[3] = ratio of the KD value with respect to GDP-bound NRAS wild-type protein to the KD value with respect to KRAS
[4] = ratio of the KD value with respect to HRAS wild-type protein to the KD value with respect to KRAS
[5] = ratio of KD value for GDP-bound NRAS wild-type protein to KD value for KRAS (SPR)
[6] = ratio of KD value for HRAS wild-type protein to KD value for KRAS (SPR)
[7] = ratio of KD for GDP-bound NRAS wild-type protein to KD for KRAS
[8] = ratio of KD for HRAS wild-type protein to KD for KRAS

Row | SMILES | IC50 [2] [nM] | NRAS /KRAS [1, 3] | HRAS /KRAS (HRAS wild-type protein; [4]) | NRAS /KRAS [1, 5] | HRAS /KRAS (HRAS wild-type protein; [6]) | NRAS /KRAS [1, 7] | HRAS /KRAS (HRAS wild-type protein; [8])
1 | CC[C@H](C)[C@@H]1NC(=O)[C@H](CC(C)C)N(C)C(=O)C[C@@H](C(=O)N2CCOCC2)N(C)C(=O)[C@H](C2CCCC2)N(C)C(=O)C2(CCCC2)NC(=O)[C@@H]2CCCN2C(=O)[C@H](CCc2ccc(C(F)(F)F)c(Cl)c2)NC(=O)CN(C)C(=O)[C@H](Cc2ccc(Cl)cc2)N2C/C=C\CC[C@@H](C2=O)N(C)C(=O)CN(C)C1=O [PP0608] | 252 | C (A compound having a KD ratio of 0.1 or more and less than 3 is denoted as C) | B (a compound having 3 or more and less than 10 is denoted as B) |  |  |  | 
2 | CCO[C@@H]1C[C@H]2C(=O)NC3(CCC3)C(=O)N(C)[C@@H](C3CCCC3)C(=O)N(CC)[C@H](C(=O)N3CCOCC3)CC(=O)N(C)[C@@H](CCOC)C(=O)N[C@@H]([C@@H](C)CC)C(=O)N(C)CC(=O)N(C)[C@H]3CCCCCN(C3=O)[C@@H](Cc3ccc(C(F)(F)F)cc3)C(=O)N(C)CC(=O)N[C@@H](CCc3cc(F)c(C(F)(F)F)c(F)c3)C(=O)N2C1 [PP0947] | 597 |  |  |  |  | A (a compound having 10 or more and less than 20 is denoted as A) | A (a compound having 10 or more and less than 20 is denoted as A)
3 | CCC[C@H]1C(=O)N[C@@H]([C@@H](C)CC)C(=O)N(C)CC(=O)N(C)[C@H]2C/C=C\CCN(C2=O)[C@@H](Cc2ccc(C)cc2)C(=O)N(C)CC(=O)N[C@@H](CCc2cc(F)c(C(F)(F)F)c(F)c2)C(=O)N2CC3(CC3)C[C@H]2C(=O)NC2(CC(C)(C)C2)C(=O)N(C)[C@@H](CC(F)(F)F)C(=O)N(C)[C@H](C(=O)N(C)C)CC(=O)N1C [PP3003] | 31.2 |  |  |  |  | AA (a compound having 20 or more is denoted as AA) | A (a compound having 10 or more and less than 20 is denoted as A)
4 | CCCN(C)C(=O)[C@@H]1CC(=O)N(C)[C@@H](C(C)C)C(=O)N[C@@H]([C@@H](C)CC)C(=O)N(C)CC(=O)N(C)[C@H]2C/C=C\CCN(C2=O)[C@@H](Cc2ccc(C(F)(F)F)cc2)C(=O)N(C)CC(=O)N[C@@H](CCc2cc(F)c(C(F)(F)F)c(F)c2)C(=O)N2C[C@H](OCC)C[C@H]2C(=O)NC2(CCC2)C(=O)N(C)[C@@H](C2CCCC2)C(=O)N1C [PP1992] | 17.7 | AA (a compound having 20 or more is denoted as AA) | B (a compound having 3 or more and less than 10 is denoted as B) |  |  |  | 
5 | CCO[C@@H]1C[C@H]2C(=O)NC3(CCC3)C(=O)N(C)[C@@H](C3CCCC3)C(=O)N(C)[C@H](C(=O)N3CCOCC3)CC(=O)N(C)[C@@H](CC(C)C)C(=O)N[C@@H]([C@@H](C)CC)C(=O)N(C)CC(=O)N(C)[C@H]3CCCCCN(C3=O)[C@@H](Cc3ccc4sccc4c3)C(=O)N(C)CC(=O)N[C@@H](CCc3cc(F)c(C(F)(F)F)c(F)c3)C(=O)N2C1 [PP0920] | 75.5 |  |  |  |  | B (a compound having 3 or more and less than 10 is denoted as B) | B (a compound having 3 or more and less than 10 is denoted as B)
6 | CCCN1C(=O)CN(C)C(=O)CN(CC)C(=O)[C@H]([C@@H](C)CC)NC(=O)[C@H](CC(C)C)N(C)C(=O)C[C@@H](C(=O)N2CCOCC2)NC(=O)[C@H](C2CCCC2)N(C)C(=O)C2(CCC2)NC(=O)[C@@H]2C[C@@H](OCC)CN2C(=O)[C@H](CCc2ccc(C(F)(F)F)c(Cl)c2)NC(=O)CN(C)C(=O)[C@@H]1Cc1ccc(C(F)(F)F)cc1 [PP0336] ([NMeL]I[NEtG][Sar][NPrPhe(4-CF3)][Sar][hPhe(3-Cl-4-CF3)][Hyp](Et)[Ac4c][NMeGly(cPent)]D-Morpholide; lactam N-11) | 73.2 |  |  |  |  | B (a compound having 3 or more and less than 10 is denoted as B) | B (a compound having 3 or more and less than 10 is denoted as B)
7 | CCO[C@@H]1C[C@H]2C(=O)NC3(CC(C)(C)C3)C(=O)N(C)[C@@H](C3CCCC3)C(=O)N(C)[C@H](C(=O)N(C)C)CC(=O)N(C)[C@@H](CC(C)C)C(=O)N[C@@H]([C@@H](C)CC)C(=O)N(C)CC(=O)N(C)[C@H]3C/C=C\CCN(C3=O)[C@@H](Cc3ccc(C)cc3F)C(=O)N(C)CC(=O)N[C@@H](CCc3ccc(C(F)(F)F)c(OC)c3)C(=O)N2C1 [PP2688] | 6.9 |  |  |  |  | A (a compound having 10 or more and less than 20 is denoted as A) | B (a compound having 3 or more and less than 10 is denoted as B)
8 | CC[C@H](C)[C@@H]1NC(=O)[C@H](CC2CCCC2)N(C)C(=O)C[C@@H](C(=O)N(C)C)N(C)C(=O)[C@@H](C2CCCC2)N(C)C(=O)C2(CCC2)NC(=O)[C@@H]2[C@@H](OCC(F)F)CCN2C(=O)[C@@H](CCc2cc(F)c(C(F)(F)F)c(F)c2)NC(=O)CN(C)C(=O)[C@@H](Cc2ccc(C)cc2)N2CC/C=C\C[C@H](C2=O)N(C)C(=O)CN(C)C1=O [PP1536] | 24.8 |  |  | A (a compound having 10 or more and less than 20 is denoted as A) | B (a compound having 3 or more and less than 10 is denoted as B) |  | 
9 | CCC[C@H]1C(=O)N[C@@H]([C@@H](C)CC)C(=O)N(C)CC(=O)N(C)[C@H]2C/C=C\CCN(C2=O)[C@@H](Cc2ccc(C)cc2)C(=O)N(C)CC(=O)N[C@@H](CCc2ccc3c(C)c(C)n(C)c3c2)C(=O)N2C[C@H](OCC)C[C@H]2C(=O)NC2(CC(C)(C)C2)C(=O)N(C)[C@@H](C2CCCC2)C(=O)N(C)[C@H](C(=O)N(C)C)CC(=O)N1C [PP2895] | 59 |  |  |  |  | A (a compound having 10 or more and less than 20 is denoted as A) | A (a compound having 10 or more and less than 20 is denoted as A)

Now from value to compound, other results behind:

Row | IC50 [2] [nM] | SMILES | NRAS /KRAS [1, 3] | HRAS /KRAS (HRAS wild-type protein; [4]) | NRAS /KRAS [1, 5] | HRAS /KRAS (HRAS wild-type protein; [6]) | NRAS /KRAS [1, 7] | HRAS /KRAS (HRAS wild-type protein; [8])
10 | 4.4 | CCC[C@H]1C(=O)N[C@@H]([C@@H](C)CC)C(=O)N(C)[C@@H](C)C(=O)N2CC[C@H]2C(=O)N(CCC)[C@@H](Cc2ccc(C(F)(F)F)cc2)C(=O)N(C)CC(=O)N[C@@H](CCc2ccc(C(F)(F)F)c(Cl)c2)C(=O)N2CCC[C@H]2C(=O)NC2(CCC2)C(=O)N(C)[C@@H](C2CCCC2)C(=O)N(CC)[C@H](C(=O)N2CCOCC2)CC(=O)N1C [PP1955] ([NMeNva]I[NMeA][Aze][NPrPhe(4-CF3)][Sar][hPhe(3-Cl-4-CF3)]P[Ac4c][NMeGly(cPent)][NEtAsp]-Morpholide; lactam N-11) | C (A compound having a KD ratio of 0.1 or more and less than 3 is denoted as C) | B (a compound having 3 or more and less than 10 is denoted as B) |  |  |  | 
11 | 3 | CCCOC[C@H]1C(=O)N[C@@H]([C@@H](C)CC)C(=O)N(C)CC(=O)N(C)[C@H]2C/C=C\CCN(C2=O)[C@@H](Cc2ccc(C(F)(F)F)cc2)C(=O)N(C)CC(=O)N[C@@H](CCc2ccc(C(F)(F)F)c(Cl)c2)C(=O)N2C[C@H](OCC)C[C@H]2C(=O)NC2(CC(C)(C)C2)C(=O)N(C)[C@@H](C2CCCC2)C(=O)N(C)[C@H](C(=O)N(C)C)CC(=O)N1C [PP1754] |  |  | A (a compound having 10 or more and less than 20 is denoted as A) | A (a compound having 10 or more and less than 20 is denoted as A) |  | 
12 | 4.1 | CC[C@H](C)[C@@H]1NC(=O)[C@H](CC(F)(F)F)N(C)C(=O)C[C@@H](C(=O)N(C)C)N(C)C(=O)[C@H](C2CCCC2)N(C)C(=O)C2(CC(C)(C)C2)NC(=O)[C@@H]2CC(F)(F)CN2C(=O)[C@H](CCc2cc(F)c(C(F)(F)F)c(F)c2)NC(=O)CN(C)C(=O)[C@H](Cc2ccc(C(F)(F)F)cc2)N2CC/C=C\C[C@@H](C2=O)N(C)C(=O)CN(C)C1=O [PP1710] |  |  | A (a compound having 10 or more and less than 20 is denoted as A) | B (a compound having 3 or more and less than 10 is denoted as B) |  | 
13 | 4.8 | CCO[C@@H]1C[C@H]2C(=O)NC3(CC(C)(C)C3)C(=O)N(C)[C@@H](C3CCCC3)C(=O)N(C)[C@H](C(=O)N(C)C)CC(=O)N(C)[C@@H](CC(F)(F)F)C(=O)N[C@@H]([C@@H](C)CC)C(=O)N(C)CC(=O)N(C)[C@H]3C/C=C\CCN(C3=O)[C@@H](Cc3ccc(C(F)(F)F)cc3)C(=O)N(C)CC(=O)N[C@@H](CCc3ccc(Cl)c(Cl)c3)C(=O)N2C1 [PP2832] |  |  |  |  | A (a compound having 10 or more and less than 20 is denoted as A) | A (a compound having 10 or more and less than 20 is denoted as A)
14 | 2.2 | CCCC[C@H]1C(=O)N[C@@H]([C@@H](C)CC)C(=O)N(C)CC(=O)N(C)[C@H]2C/C=C\CCN(C2=O)[C@@H](Cc2ccc(C(F)(F)F)cc2)C(=O)N(C)CC(=O)N[C@@H](CCc2cc(F)c(C(F)(F)F)c(F)c2)C(=O)N2C[C@H](OCC)C[C@H]2C(=O)NC2(CC(C)(C)C2)C(=O)N(C)[C@@H](C2CCCC2)C(=O)N(C)[C@H](C(=O)N(C)C)CC(=O)N1C [PP1649] |  |  | A (a compound having 10 or more and less than 20 is denoted as A) | B (a compound having 3 or more and less than 10 is denoted as B) |  | 
15 | 9.9 | CC[C@H](C)[C@@H]1NC(=O)[C@H](CC(C)C)N(C)C(=O)C[C@@H](C(=O)N2CCOCC2)N(C)C(=O)[C@H](C2CCCC2)N(C)C(=O)C2(CCCC2)NC(=O)[C@@H]2CCCN2C(=O)[C@H](CCc2ccc(C(F)(F)F)c(Cl)c2)NC(=O)CN(C)C(=O)[C@H](Cc2ccc(C)cc2)N(CC2CC2)C(=O)CN(C)C(=O)CN(C)C1=O [PP0064] ([NMeL]I[Sar][Sar][X49][Sar][hPhe(3-Cl-4-CF3)]P[Ac5c][NMeGly(cPent)][NMeD]-Morpholide; lactam N-11) |  |  |  |  | C (A compound having a KD ratio of 0.1 or more and less than 3 is denoted as C) | C (A compound having a KD ratio of 0.1 or more and less than 3 is denoted as C)
